Data from patent US8617540B2, “Combinational chemotherapy treatment” (Fox Chase Cancer Center, priority 2009, dated 2013).
Read-outs that look alike come from different tables or passages of the source.

Tests used:
HT-29 colon cancer cells = assay: Cell growth assay (WST-1), combination analysed with CombiTool; assay type: cell-based; settings: for synergistic activity on growth inhibition in combination with HmdU: 5-FU related compound used with HmdU; for synergistic activity on growth inhibition when combined with 5-FU: HmdU related drug combined with 5-FU
Procedure: In a typical cell growth assay, cells were plated in 96-well plates on Day 0, and indicated concentrations of drugs were added on Day 1. Each condition was replicated in triplicate. Subsequently, quantities of metabolically active cells in each well were measured by WST-1 assay on Day 4. The WST-1 assay (assay reagents from Roche) measures the concentration of formazan converted from a tetrazolium salt, WST-1, by a mitochondrial succinate-tetrazolium-reductase system.
CombiTool is a computer program for the analysis of combination effects of biologically active agents and is described in Dressler et al. (Computers and Biomedical Research (1999) 32:145-160). It performs model calculations and an analysis of experimental combination effects for two or three agents according to both the Bliss independence and the Loewe additivity criteria. Zero interaction response surfaces are calculated from single-agent dose-response relations and compared to experimental combination data. The calculation of response surfaces for Loewe additivity is based on a new approach which combines the implicit definition equation in terms of doses alone with single-agent dose-response relations. CombiTool has a built-in graphics facility which allows for the direct visualization of the response surfaces or the corresponding contour plots and the experimental data.
In the present example, the in vitro effects of 5-FU and HmdU treatment were assessed in several cell lines. […] FIG. 1B show the results interpreted with the CombiTool program which indicates synergistic experimental data by large gray circles above the lower additive results when the drugs are used alone. […] FIGS. 1C and 1D show similar results from experiments in the colon cancel cell line, HCT116.
Further testing was performed on the HT-29 cell line to assess whether compounds that are structurally and/or functionally related to 5-FU and HmdU also display synergistic activity on growth inhibition. In a series of experiments 5-FU was tested with: (1) 5-Hydroxymethyluracil (HmU), a base form which is subsequently converted to a nucleoside form, HmdUrd; (2) Deoxyuridine (dUrd), a nucleoside which is different from HmdU by the lack of modification at the 5-carbon position; and (3) 5-Hydroxydeoxyuridine (OHdU), a nucleoside which is different from HmdU by the lack of a methyl group in the 5-carbon modification. […] See FIG. 7A-7D (HmU—obtained from Cayman Chemical and Aldrich Chemical Company, respectively+5FU), FIG. 8A-8B (dUrd+5FU), and FIG. 9A-9B (OHdU+5FU).
Another set of experiments tested several alternative 5-FU agents in combination with HmdU to determine if synergy exists when the agents were administered in combination. The 5-FU related compounds used with HmdU were: (1) 5-Fluorodeoxyuridine (5-FdU), a deoxyribonucleoside (2) Deoxyadenosine (dA), an agent capable of decreasing dTTP; and (3) Raltitrexed, a structural analog of 5,10-methylene tetrahydrofolate (CH2THF), and a specific inhibitor of thymidylate synthase (TS). […] See FIGS. 11 (dA) and 12 (Raltitrexed).

HT-29 cells = assay: Cell cycle analysis of synchronized cells; assay type: cell-based; settings: 48 h of treatment with 5-FU and HmdU
Procedure: Panel A is a cell cycle analysis of synchronized HT-29 cells with 5-FU, HmdU, and combined 5-FU/HmdU treatment over a period of two days.
First, clonogenic assays were performed to determine the time course of the combination of 5-FU and HmdU. […] Subsequently, cell cycle distribution was assessed.

[1] = system: cells treated with 5-FU and HmdU; assay: Effect of PARP-1 inhibitors on cytotoxicity of 5-FU and HmdU; settings: PARP-1 inhibitor added
Text: (§1) Taking account of effect of 3-aminobenzamide on cell cycle shown FIG. 14B, effects of PARP-1 inhibitors on cytotoxicity were examined.

[2] = system: cells treated with 5-FU and HmdU
Text: as §1

HT-29 = assay: Caspase inhibitor rescue from cell killing by 5-FU and HmdU; assay type: cell-based; settings: caspase inhibitor added
Procedure: Further, experiments were performed to uncover whether the combined treatment with 5-FU and HmdU induces PARP1 cleavage, which would indicate that apoptosis is the pathway responsible for the cytotoxic effects. […] Both of the results in FIGS. 17 and 18 indicate that the cell killing by the combined drug treatment is not via apoptosis. However, the combination has a synergistic effect on the cytotoxicities of 5-FU and HmdU, and derivatives thereof.

Q: `Nc1ncnc2c1ncn2[C@H]1C[C@H](O)[C@@H](CO)O1` [dA, Deoxyadenosine] was tested. Which “synergistic activity on growth inhibition in combination with HmdU” value (HT-29 colon cancer cells) did it give?
A: did not show any significant synergistic effects

Q: With `NC(=O)c1cccc(N)c1` [3-aminobenzamide] as the compound, how does the “effect of added agent on the cell cycle” value (HT-29 cells) read?
A: allows cells to complete DNA replication

Q: And the “effect on growth inhibition by 5-FU and HmdU” value [1]?
A: rescued cells from growth inhibition

Q: With `Nc1ccc2c3c(cccc13)C(=O)NC2=O` [4-amino-1,8-naphtalimide] as the compound, how does the “effect on growth inhibition by 5-FU and HmdU” value [2] read?
A: rescued cells from growth inhibition

Q: For `O=c1[nH]c(=O)n([C@H]2C[C@H](O)[C@@H](CO)O2)cc1O` [OHdU, 5-Hydroxydeoxyuridine], which “synergistic activity on growth inhibition when combined with 5-FU” value (HT-29 colon cancer cells) is on record?
A: did not show any significant synergistic effects

Q: `CC(C)[C@H](NC(=O)c1ccc2ccccc2n1)C(=O)N[C@@H](CC(=O)O)C(=O)COc1c(F)cccc1F` [QVD] was tested. Which “rescue from cell killing by the 5-FU and HmdU treatment” value (HT-29) did it give?
A: did not rescue

Q: How did the “synergistic activity on growth inhibition in combination with HmdU” value (HT-29 colon cancer cells) turn out when `O=c1[nH]c(=O)n([C@H]2C[C@H](O)[C@@H](CO)O2)cc1F` [5-FdU, 5-Fluorodeoxyuridine] was run?
A: strong synergy

Q: How did the “synergistic activity on growth inhibition when combined with 5-FU” value (HT-29 colon cancer cells) turn out when `O=c1[nH]cc(CO)c(=O)[nH]1` [HmU, 5-Hydroxymethyluracil] was run?
A: did not show any significant synergistic effects

Q: With `Cn1c(=O)c2c(ncn2C)n(C)c1=O` [caffeine] as the compound, how does the “effect of added agent on the cell cycle” value (HT-29 cells) read?
A: overcomes G2/M arrest

Q: How did the “synergistic activity on growth inhibition when combined with 5-FU” value (HT-29 colon cancer cells) turn out when `O=c1ccn([C@H]2C[C@H](O)[C@@H](CO)O2)c(=O)[nH]1` [dUrd, Deoxyuridine] was run?
A: did not show any significant synergistic effects

Q: How did the “synergistic activity on growth inhibition in combination with HmdU” value (HT-29 colon cancer cells) turn out when `Cc1nc2ccc(CN(C)c3ccc(C(=O)N[C@@H](CCC(=O)O)C(=O)O)s3)cc2c(=O)[nH]1` [Raltitrexed] was run?
A: did not show any significant synergistic effects
